According to ChEMBL document CHEMBL5244223, “l,8-Naphthalimide based DNA intercalators and anticancer agents. A systematic review from 2007 to 2017” (Eur J Med Chem, 2018):
Converted amounts (≈) assume the structure as drawn. Blank lines part the entries; values can stand above or below the compound they belong to.

Experiments:
HL-60 [1] = experiment: Cytotoxicity against human HL-60 cells assessed as inhibition of cell growth incubated for 96 hrs by MTT assay; assay type: functional, cell-based; conditions: HL-60, 96 h
U-937 = experiment: Cytotoxicity against human U-937 cells assessed as inhibition of cell growth incubated for 96 hrs by MTT assay; assay type: functional, cell-based; conditions: U-937, 96 h
Calf thymus DNA [2] = experiment: Binding affinity to calf thymus DNA assessed as DNA intercalation by measuring change in melting temperature by thermal denaturation assay based UV-Vis spectrophotometric analysis; assay type: nucleic-acid assay; conditions: Bos taurus
HT-29 = experiment: Antiproliferative activity against human HT-29 cells assessed as inhibition of cell proliferation; assay type: functional, cell-based
MCF7 [3] = experiment: Antiproliferative activity against human MCF7 cells assessed as inhibition of cell proliferation; assay type: functional, cell-based
A549 [4] = experiment: Cytotoxicity against human A549 cells assessed as inhibition of cell growth by MTT assay; assay type: functional, cell-based
MCF7 [5] = experiment: Cytotoxicity against human MCF7 cells assessed as inhibition of cell growth by MTT assay; assay type: functional, cell-based
HeLa [6] = experiment: Cytotoxicity against human HeLa cells assessed as inhibition of cell growth by MTT assay; assay type: functional, cell-based
SGC-7901 [7] = experiment: Cytotoxicity against human SGC-7901 cells assessed as inhibition of cell growth by MTT assay; assay type: functional, cell-based
Calf thymus DNA [8] = experiment: Binding affinity to calf thymus DNA assessed as DNA intercalation by measuring binding constant by fluorescence spectroscopic assay; assay type: nucleic-acid assay; conditions: Bos taurus
Jurkat = experiment: Antiproliferative activity against human Jurkat cells assessed as inhibition of cell proliferation incubated for 72 hrs by MTT assay; assay type: functional, cell-based
A549 [9] = experiment: Antiproliferative activity against human A549 cells assessed as inhibition of cell proliferation incubated for 72 hrs by MTT assay; assay type: functional, cell-based; conditions: A549, 72 h
MCF7 [10] = experiment: Antiproliferative activity against human MCF7 cells assessed as inhibition of cell proliferation incubated for 72 hrs by MTT assay; assay type: functional, cell-based; conditions: MCF7, 72 h
A549 [11] = experiment: Cytotoxicity against human A549 cells assessed as inhibition of cell growth incubated for 48 hrs by MTT spectrophotometric assay; assay type: functional, cell-based; conditions: A549, 48 h
HeLa [12] = experiment: Cytotoxicity against human HeLa cells assessed as inhibition of cell growth incubated for 48 hrs by MTT spectrophotometric assay; assay type: functional, cell-based
SGC-7901 [13] = experiment: Cytotoxicity against human SGC-7901 cells assessed as inhibition of cell growth incubated for 48 hrs by MTT spectrophotometric assay; assay type: functional, cell-based; conditions: SGC-7901, 48 h
Calf thymus DNA [14] = experiment: Binding affinity to calf thymus DNA assessed as binding constant by UV-Vis spectroscopic analysis; assay type: nucleic-acid assay; conditions: Bos taurus
[15] = Antioxidant activity assessed as DPPH radical scavenging activity incubated for 30 mins by UV-Vis spectrophotometer assay; assay type: functional
Calf thymus DNA [16] = experiment: Binding affinity to calf thymus DNA assessed as binding constant incubated for 30 mins by fluorescence based EtBr-displacement assay; assay type: nucleic-acid assay; conditions: Bos taurus
[17] = Antioxidant activity assessed as hydrogen peroxide free radical scavenging activity incubated for 10 mins; assay type: functional
Calf thymus DNA [18] = experiment: Binding affinity to calf thymus DNA assessed as DNA intercalation by measuring change in melting temperature by thermal denaturation assay; assay type: nucleic-acid assay; conditions: Bos taurus
HL-60 [19] = experiment: Antiproliferative activity against human HL-60 cells assessed as inhibition of cell growth; assay type: functional, cell-based
A549 [20] = experiment: Antiproliferative activity against human A549 cells assessed as inhibition of cell growth; assay type: functional, cell-based
HeLa [21] = experiment: Antiproliferative activity against human HeLa cells assessed as inhibition of cell growth; assay type: functional, cell-based
Escherichia coli = experiment: Antibacterial activity against Escherichia coli MTCC 443 assessed as inhibition of bacterial growth by agar well diffusion assay; assay type: functional
Pseudomonas aeruginosa = experiment: Antibacterial activity against Pseudomonas aeruginosa MTCC 741 assessed as inhibition of bacterial growth by agar well diffusion assay; assay type: functional
Staphylococcus aureus = experiment: Antibacterial activity against Staphylococcus aureus MTCC 96 assessed as inhibition of bacterial growth by agar well diffusion assay; assay type: functional
A2780 = experiment: Cytotoxicity against human A2780 cells assessed as inhibition of cell growth incubated for 72 hrs by SRB assay; assay type: functional, cell-based; conditions: A2780, 72 h
[22] = system: Staphylococcus epidermidis; experiment: Antibacterial activity against Staphylococcus epidermidis MTCC 435 assessed as inhibition of bacterial growth by agar well diffusion assay; assay type: functional
HeLa [23] = experiment: Antiproliferative activity against human HeLa cells assessed as inhibition of cell proliferation incubated for 48 hrs by MTT assay; assay type: functional, cell-based
SMMC-7721 = experiment: Antiproliferative activity against human SMMC-7721 cells assessed as inhibition of cell proliferation incubated for 48 hrs by MTT assay; assay type: functional, cell-based; conditions: SMMC-7721, 48 h
MCF7 [24] = experiment: Antiproliferative activity against human MCF7 cells assessed as inhibition of cell proliferation incubated for 48 hrs by MTT assay; assay type: functional, cell-based; conditions: MCF7, 48 h
PANC-1 = experiment: Cytotoxicity against human PANC-1 cells assessed as inhibition of cell growth incubated for 24 hrs by XTT assay; assay type: functional, cell-based; conditions: PANC-1, 24 h
HCT-116 = experiment: Cytotoxicity against human HCT-116 cells assessed as inhibition of cell growth incubated for 24 hrs by XTT assay; assay type: functional, cell-based; conditions: HCT-116, 24 h
SK-MEL-28 = experiment: Growth inhibition against human SK-MEL-28 cells at 10 uM incubated for 48 hrs by sulforhodamine B reagent assay; assay type: functional; conditions: read-out: GI

SMILES: O=C1c2cccc3c([N+](=O)[O-])ccc(c23)C(=O)N1CCO
IC50 (HL-60 [1]): 700 nM
IC50 (U-937): 700 nM

ΔTm (Calf thymus DNA [2]): 3 °C
IC50 (HT-29): 4600 nM
IC50 (MCF7 [3]): 4600 nM
SMILES: O=C1c2cccc3cccc(c23)C(=O)N1CCCn1cc[n+](Cc2ccccc2)c1

Kb (Calf thymus DNA [8]): 1.8 10^4/M
SMILES: CN(C)CCN1C(=O)c2cccc3c(N4CCC[C@@H]4CO)ccc(c23)C1=O
IC50 (A549 [4]): 870 nM
IC50 (MCF7 [5]): 870 nM
IC50 (HeLa [6]): 870 nM
IC50 (SGC-7901 [7]): 870 nM

IC50 (Jurkat): 5580 nM
IC50 (A549 [9]): 5670 nM
IC50 (MCF7 [10]): 5670 nM
SMILES: O=C1c2cccc3cccc(c23)C(=O)N1CC/N=C/c1ccccn1

Kb (Calf thymus DNA [14]): 0.47 10^5/M
SMILES: CN(C)CCN1C(=O)c2cccc3c(N4CCN(CCCO)CC4)ccc(c23)C1=O
IC50 (A549 [11]): < 7000 nM
IC50 (HeLa [12]): < 7000 nM
IC50 (SGC-7901 [13]): < 7000 nM

SMILES: O=C1c2cccc3c([N+](=O)[O-])ccc(c23)C(=O)N1CCCCl
IC50 (HL-60 [1]): 300 nM
IC50 (U-937): 300 nM

IC50 [15]: 1280 µg/mL (≈ 3550 µM)
Kb (Calf thymus DNA [16]): 3.33 10^4/M
IC50 [17]: 1060 µg/mL (≈ 2940 µM)
SMILES: CCOc1cc(/C=N/N2C(=O)c3cccc4cccc(c34)C2=O)ccc1O

ΔTm (Calf thymus DNA [18]): 11.8 °C
IC50 (HL-60 [19]): 13100 nM
IC50 (A549 [20]): 13100 nM
IC50 (HeLa [21]): 13100 nM
SMILES: CN(C)CCN1C(=O)c2cccc3c(NCCNCCNCCNCCN)ccc(c23)C1=O

ΔTm (Calf thymus DNA [18]): 11.8 °C
IC50 (HL-60 [19]): 13100 nM
IC50 (A549 [20]): 13100 nM
IC50 (HeLa [21]): 13100 nM
SMILES: CN(C)CCN1C(=O)c2cccc3c(NCCNCCNCCN)ccc(c23)C1=O

ΔTm (Calf thymus DNA [18]): 0.1 °C
MIC (Escherichia coli): 18.8 µg/mL (≈ 26 µM)
MIC (Pseudomonas aeruginosa): 18.8 µg/mL (≈ 26 µM)
MIC (Staphylococcus aureus): 18.8 µg/mL (≈ 26 µM)
MIC [22]: 18.8 µg/mL (≈ 26 µM)
SMILES: O=C1c2ccc3c4c(ccc(c24)C(=O)N1c1nc(-c2cc4ccccc4oc2=O)cs1)C(=O)N(c1nc(-c2cc4ccccc4oc2=O)cs1)C3=O
IC50 (A2780): < 100 nM

IC50 (HeLa [23]): 300 nM
IC50 (SMMC-7721): 300 nM
IC50 (MCF7 [24]): 300 nM
Kb (Calf thymus DNA [14]): 5.1 10^5/M
SMILES: CN(C)CCN1C(=O)c2cccc3cc(-n4ccnn4)cc(c23)C1=O

SMILES: COS(=O)(=O)CCCCSc1ccc2c3c(cccc13)C(=O)N(CCN(C)C)C2=O
IC50 (PANC-1): 11700 nM
IC50 (HCT-116): 11700 nM

Kb (Calf thymus DNA [8]): 1.8 10^4/M
SMILES: CN(C)CCN1C(=O)c2cccc3c(N4CCC[C@H]4CO)ccc(c23)C1=O
IC50 (A549 [4]): 870 nM
IC50 (MCF7 [5]): 870 nM
IC50 (HeLa [6]): 870 nM
IC50 (SGC-7901 [7]): 870 nM

SMILES: O=C1c2cccc3cccc(c23)C(=O)N1CCCCN1CCN(CCCCOc2ccc(-c3nc4ccc(N5CCOCC5)cc4[nH]3)cc2)CC1
inhibition of growth at 10 µM (SK-MEL-28): 50%

ΔTm (Calf thymus DNA [18]): 0.1 °C
MIC (Escherichia coli): 18.8 µg/mL (≈ 24 µM)
MIC (Pseudomonas aeruginosa): 18.8 µg/mL (≈ 24 µM)
MIC (Staphylococcus aureus): 18.8 µg/mL (≈ 24 µM)
MIC [22]: 18.8 µg/mL (≈ 24 µM)
SMILES: COc1cccc2cc(-c3csc(N4C(=O)c5ccc6c7c(ccc(c57)C4=O)C(=O)N(c4nc(-c5cc7cccc(OC)c7oc5=O)cs4)C6=O)n3)c(=O)oc12
IC50 (A2780): < 100 nM

SMILES: O=C1c2cccc3c([N+](=O)[O-])ccc(c23)C(=O)N1CCCl
IC50 (HL-60 [1]): 300 nM
IC50 (U-937): 300 nM

Kb (Calf thymus DNA [8]): 1.8 10^4/M
SMILES: CN(C)CCN1C(=O)c2cccc3c(N4CC[C@H](O)C4)ccc(c23)C1=O
IC50 (A549 [4]): 870 nM
IC50 (MCF7 [5]): 870 nM
IC50 (HeLa [6]): 870 nM
IC50 (SGC-7901 [7]): 870 nM
